Literature values as cited in US11020355B2, “Method of encapsulating cannabinoids in phospholipid carriers” (NuVessl, Inc., priority 2018, dated 2021).
Read-outs that look alike come from different tables or passages of the source.

How the values were obtained:
[1] = oral administration
[2] = design: AUC (0-10.5 hours): unit not given beside the values; details: oromucosal, historic data

## C=C(C)[C@@H]1CCC(C)=C[C@H]1c1c(O)cc(CCCCC)cc1O [CBD, cannabidiol]
[1]
  bioavailability: 6%-15%
[2]; 10 mg CBD
  C max: 3.0 microgram per liter (nanogram per mL)
[2]; 15 mg CBD
  C max: 3.7 microgram per liter (nanogram per mL)
[2]; 5-15 mg CBD
  AUC (0-10.5 hours): 4.1-12.6
  Tmax: 3.6 to 4.5 h
